One may read the T/C as the result in the treated group divided by that in the control group, in per cent.

For the experiment, the system named is BDF1 mice, Adenocarcinoma 755 s.c., tumor weight T/C. Kind of experiment: NCI In Vivo Anticancer Drug Screen. Data for tumor model Adenocarcinoma 755 (subcutaneous) in B6D2F1 (BDF1) mice. Conditions: endpoint: mean tumor weight, higher = larger tumour. The essentials:
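Compound activity was tested in mice carrying transplanted tumors. Survival or tumor size was measured, and each value is the treated-group measurement divided by that of the vehicle-treated control group (T/C).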

Setting [1] is: dose: 25.0 mg/kg/injection, schedule: Q01DX011 (ip), vehicle: methylcellulose (MC).
Where [2] appears, read: dose: 12.5 mg/kg/injection, schedule: Q01DX011 (ip), vehicle: methylcellulose (MC).
Setting [3] is: dose: 50.0 mg/kg/injection, schedule: Q01DX011 (ip), vehicle: methylcellulose (MC).
The mark [4] stands for this setting: dose: 64.0 mg/kg/injection, schedule: Q01DX011 (ip), vehicle: carboxymethylcellulose (CMC).
Setting [5] is: dose: 75.0 mg/kg/injection, schedule: Q01DX011 (ip), vehicle: methylcellulose (MC).
[6] abbreviates: dose: 100.0 mg/kg/injection, schedule: Q01DX011 (ip), vehicle: methylcellulose (MC).
Setting [7] is: dose: 15.0 mg/kg/injection, schedule: Q01DX011 (ip), vehicle: methylcellulose (MC).
Where [8] appears, read: dose: 31.0 mg/kg/injection, schedule: Q01DX011 (ip), vehicle: methylcellulose (MC).
[9] abbreviates: dose: 62.0 mg/kg/injection, schedule: Q01DX011 (ip), vehicle: methylcellulose (MC).
The mark [10] stands for this setting: dose: 2.0 mg/kg/injection, schedule: Q01DX011 (ip), vehicle: carboxymethylcellulose (CMC).
Setting [11] is: dose: 4.0 mg/kg/injection, schedule: Q01DX011 (ip), vehicle: carboxymethylcellulose (CMC).
Where [12] appears, read: dose: 8.0 mg/kg/injection, schedule: Q01DX011 (ip), vehicle: carboxymethylcellulose (CMC).

Values joined by “and” are separate entries in the source; they are usually repeats but may differ in a detail not shown here. Equal values may be shown once.

As to `COc1cccc2c1cc([N+](=O)[O-])c1c(C(=O)O)cc3c(c12)OCO3`, the T/C runs as follows: (dose: 50.0 mg/kg/injection, schedule: Q01DX011 (ip), vehicle: other) 59 % of control; (dose: 100.0 mg/kg/injection, schedule: Q01DX011 (ip), vehicle: other) 43 % of control.
As to `Cn1c(=O)c2[nH]c(N/N=C/c3ccccc3)nc2n(C)c1=O`, the T/C (dose: 20.0 mg/kg/injection, schedule: Q01DX011 (ip), vehicle: methylcellulose (MC)) was 56 % of control; the T/C under setting [1] was 45 % of control and 53 % of control; the T/C (dose: 80.0 mg/kg/injection, schedule: Q01DX011 (ip), vehicle: methylcellulose (MC)) was 73 % of control; the T/C (dose: 225.0 mg/kg/injection, schedule: Q01DX011 (ip), vehicle: methylcellulose (MC)) was 41 % of control and 46 % of control.
For `O=C1CN(/N=C\c2ccc([N+](=O)[O-])o2)C(=O)N1`, the T/C was 111 % of control (dose: 4.74 mg/kg/injection, schedule: Q01DX011 (ip), vehicle: carboxymethylcellulose (CMC)); 96 % of control (dose: 8.03 mg/kg/injection, schedule: Q01DX011 (ip), vehicle: carboxymethylcellulose (CMC)); 121 % of control (dose: 9.48 mg/kg/injection, schedule: Q01DX011 (ip), vehicle: carboxymethylcellulose (CMC)); 83 % of control under setting [2]; 115 % of control (dose: 16.05 mg/kg/injection, schedule: Q01DX011 (ip), vehicle: carboxymethylcellulose (CMC)); 94 % of control (dose: 18.95 mg/kg/injection, schedule: Q01DX011 (ip), vehicle: carboxymethylcellulose (CMC)). For the same compound, the T/C reads like this: under setting [1], 61 % of control; (dose: 25.68 mg/kg/injection, schedule: Q01DX011 (ip), vehicle: carboxymethylcellulose (CMC)) 68 % of control; (dose: 35.0 mg/kg/injection, schedule: Q01DX011 (ip), vehicle: carboxymethylcellulose (CMC)) 84 % of control; (dose: 37.9 mg/kg/injection, schedule: Q01DX011 (ip), vehicle: carboxymethylcellulose (CMC)) 80 % of control; (dose: 42.8 mg/kg/injection, schedule: Q01DX011 (ip), vehicle: carboxymethylcellulose (CMC)) 41 % of control; (dose: 45.0 mg/kg/injection, schedule: Q01DX011 (ip), vehicle: carboxymethylcellulose (CMC)) 64 % of control. Also, the T/C is 75 % of control under setting [3]; 98 % of control (dose: 56.0 mg/kg/injection, schedule: Q01DX011 (ip), vehicle: carboxymethylcellulose (CMC)); 72 % of control under setting [4]; 55 % of control under setting [5]; 89 % of control under setting [6].
`CCc1c(Cl)nc(N)nc1Nc1ccccc1Br`: the T/C is 96 % of control under setting [7]; 101 % of control under setting [8]; 76 % of control under setting [9]; 75 % of control (dose: 250.0 mg/kg/injection, schedule: Q01DX011 (ip), vehicle: methylcellulose (MC)).
For the compound `CN(C)[C@@H]1C(=O)C(C(=O)NCNc2nc3n[nH]nc3c(=O)[nH]2)=C(O)[C@@]2(O)C(=O)C3=C(O)c4c(O)cccc4[C@@](C)(O)[C@H]3C[C@@H]12`, the T/C reads like this: (dose: 25.0 mg/kg/injection, schedule: Q01DX011 (ip), vehicle: saline) 89 % of control; (dose: 50.0 mg/kg/injection, schedule: Q01DX011 (ip), vehicle: saline) 93 % of control; (dose: 100.0 mg/kg/injection, schedule: Q01DX011 (ip), vehicle: saline) 79 % of control; (dose: 200.0 mg/kg/injection, schedule: Q01DX011 (ip), vehicle: saline) 40 % of control.
As for `CN1CC[C@]23c4c5ccc(O)c4O[C@H]2C(=O)CC[C@@]3(O)[C@H]1C5`, the T/C (dose: 4.5 mg/kg/injection, schedule: Q01DX011 (ip), vehicle: methylcellulose (MC)) was 61 % of control and 73 % of control and 74 % of control.
In the case of `OCCn1cnc2c(SCc3ccccc3)ncnc21`, the T/C under setting [2] is 108 % of control; the T/C under setting [1] is 17 % of control; the T/C under setting [3] was 3 % of control; the T/C under setting [5] is 3 % of control; the T/C under setting [6] was 1 % of control.
In the case of `Cc1ccc(C(=O)[O][Hg][CH2]C2COC([CH2][Hg][O]C(=O)c3ccc(C)cc3)CO2)cc1` (stereo not drawn), the T/C is, setting by setting: (dose: 6.25 mg/kg/injection, schedule: Q01DX011 (ip), vehicle: methylcellulose (MC)) 101 % of control; under setting [1], 61 % of control; under setting [3], 38 % of control.
For `Nc1nc(=S)c2ncn(C3CCCO3)c2[nH]1` (stereo not drawn), the T/C was 71 % of control (dose: 0.7 mg/kg/injection, schedule: Q01DX011 (ip), vehicle: carboxymethylcellulose (CMC)); 60 % of control (dose: 1.5 mg/kg/injection, schedule: Q01DX011 (ip), vehicle: carboxymethylcellulose (CMC)); 38 % of control (dose: 3.0 mg/kg/injection, schedule: Q01DX011 (ip), vehicle: carboxymethylcellulose (CMC)); 2 % of control (dose: 7.5 mg/kg/injection, schedule: Q01DX011 (ip), vehicle: carboxymethylcellulose (CMC)); 2 % of control (dose: 15.0 mg/kg/injection, schedule: Q01DX011 (ip), vehicle: carboxymethylcellulose (CMC)).
Turning to `O=C(O)c1[nH]c(=O)[nH]c(=O)c1F`, the T/C runs as follows: (dose: 1.5 mg/kg/injection, schedule: Q01DX011 (ip), vehicle: other) 53 % of control; (dose: 3.0 mg/kg/injection, schedule: Q01DX011 (ip), vehicle: other) 79 % of control; (dose: 6.0 mg/kg/injection, schedule: Q01DX011 (ip), vehicle: other) 37 % of control; (dose: 12.0 mg/kg/injection, schedule: Q01DX011 (ip), vehicle: other) 10 % of control.
Turning to `O=C(Nc1ccc(C2=NCCCN2)cc1)c1ccc(NC(=O)c2ccc(C3=NCCCN3)cc2)cc1`, the T/C reads like this: under setting [10], 89 % of control; under setting [11], 63 % of control; under setting [12], 53 % of control.
Consider `CCCN1CCC(=O)NC1=S`, for which the T/C runs as follows: under setting [7], 81 % of control; under setting [8], 64 % of control; under setting [9], 74 % of control; (dose: 125.0 mg/kg/injection, schedule: Q01DX011 (ip), vehicle: methylcellulose (MC)) 93 % of control.
`N#CCSc1ncnc2nc[nH]c12`: the T/C is 63 % of control (dose: 1.0 mg/kg/injection, schedule: Q01DX011 (im), vehicle: carboxymethylcellulose (CMC)); 54 % of control (dose: 1.0 mg/kg/injection, schedule: Q01DX011 (ip), vehicle: carboxymethylcellulose (CMC)); 79 % of control (dose: 1.0 mg/kg/injection, schedule: Q01DX011 (iv), vehicle: carboxymethylcellulose (CMC)); 53 % of control (dose: 1.0 mg/kg/injection, schedule: Q01DX011 (sc), vehicle: carboxymethylcellulose (CMC)); 9 % of control (dose: 2.0 mg/kg/injection, schedule: Q01DX011 (im), vehicle: carboxymethylcellulose (CMC)); 14 % of control under setting [10]. Also, the T/C (dose: 2.0 mg/kg/injection, schedule: Q01DX011 (iv), vehicle: carboxymethylcellulose (CMC)) is 28 % of control; the T/C (dose: 2.0 mg/kg/injection, schedule: Q01DX011 (sc), vehicle: carboxymethylcellulose (CMC)) was 10 % of control; the T/C (dose: 4.0 mg/kg/injection, schedule: Q01DX011 (im), vehicle: carboxymethylcellulose (CMC)) was 1 % of control; the T/C under setting [11] was 6 % of control; the T/C under setting [12] was 7 % of control; the T/C (dose: 8.0 mg/kg/injection, schedule: Q01DX011 (iv), vehicle: carboxymethylcellulose (CMC)) was 1 % of control. Further, the T/C is, setting by setting: (dose: 16.0 mg/kg/injection, schedule: Q01DX011 (ip), vehicle: carboxymethylcellulose (CMC)) 3 % of control; (dose: 50.0 mg/kg/injection, schedule: Q03DX004 (ip), vehicle: carboxymethylcellulose (CMC)) 2 % of control; under setting [4], 2 % of control; (dose: 100.0 mg/kg/injection, schedule: Q01DX001 (ip), vehicle: carboxymethylcellulose (CMC)) 20 % of control; (dose: 100.0 mg/kg/injection, schedule: Q03DX004 (ip), vehicle: carboxymethylcellulose (CMC)) 1 % of control; (dose: 100.0 mg/kg/injection, schedule: Q07DX002 (ip), vehicle: carboxymethylcellulose (CMC)) 5 % of control. Besides, the T/C was 20 % of control (dose: 200.0 mg/kg/injection, schedule: Q01DX001 (ip), vehicle: carboxymethylcellulose (CMC)) and 3 % of control (dose: 200.0 mg/kg/injection, schedule: Q07DX002 (ip), vehicle: carboxymethylcellulose (CMC)).
Regarding `CC1CN1C(=O)c1cc(C(=O)N2CC2C)cc(C(=O)N2CC2C)c1` (stereo not drawn), the T/C under setting [7] is 69 % of control; the T/C (dose: 30.0 mg/kg/injection, schedule: Q01DX011 (ip), vehicle: methylcellulose (MC)) is 57 % of control and 64 % of control.

Source of the values: PubChem BioAssay AID180 (DTP/NCI, 2004).
